Experimental data from patent US20150342954A1, “2-BENZYL, 3-(PYRIMIDIN-2-YL) SUBSTITUTED PYRAZOLES USEFUL AS SGC STIMULATORS” (IRONWOOD PHARMACEUTICALS, INC., priority 2011, published 2015).
Like-named read-outs stand apart in the source and are kept apart here.

Columns and labels:
[1] = molecular target: T1, soluble guanylate cyclase (sGC) (Homo sapiens, UniProt Q02108+Q02153); test: sGC-HEK-cGMP assay (run with SNP incubation); format: cell-based; conditions: for Emax: 10 μM SNP, 100% = 30 μM BAY 41-2272 with 10 μM SNP, read-out: HEK assay Emax-unconstrained (Percent); for HEK MEC-10: concentration that would elicit 10% of the Emax in the presence of 10 μM SNP; for EC50: in the presence of 10 μM SNP
T1 construct: endogenously expressing soluble guanylate cyclase (sGC); endogenous in cells; host or cells: HEK293
T1 sequence (Q02153 1-619): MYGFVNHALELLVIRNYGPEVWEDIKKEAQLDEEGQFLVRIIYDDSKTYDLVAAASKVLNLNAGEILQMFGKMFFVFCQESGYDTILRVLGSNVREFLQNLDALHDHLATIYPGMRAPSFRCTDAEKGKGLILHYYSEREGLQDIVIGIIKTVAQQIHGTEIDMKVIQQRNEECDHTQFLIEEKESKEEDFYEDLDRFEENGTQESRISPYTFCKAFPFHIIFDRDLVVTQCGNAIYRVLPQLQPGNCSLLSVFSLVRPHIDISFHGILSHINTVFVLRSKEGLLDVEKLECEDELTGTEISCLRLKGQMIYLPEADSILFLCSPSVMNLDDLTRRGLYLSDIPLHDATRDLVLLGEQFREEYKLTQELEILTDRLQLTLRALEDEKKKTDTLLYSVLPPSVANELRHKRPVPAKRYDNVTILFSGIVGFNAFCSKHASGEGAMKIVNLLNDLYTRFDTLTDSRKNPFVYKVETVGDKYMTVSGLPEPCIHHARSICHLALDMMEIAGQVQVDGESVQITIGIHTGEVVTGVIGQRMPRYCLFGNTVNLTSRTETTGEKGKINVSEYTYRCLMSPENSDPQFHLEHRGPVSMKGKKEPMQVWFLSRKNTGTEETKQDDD
T1 sequence (Q02108 1-690): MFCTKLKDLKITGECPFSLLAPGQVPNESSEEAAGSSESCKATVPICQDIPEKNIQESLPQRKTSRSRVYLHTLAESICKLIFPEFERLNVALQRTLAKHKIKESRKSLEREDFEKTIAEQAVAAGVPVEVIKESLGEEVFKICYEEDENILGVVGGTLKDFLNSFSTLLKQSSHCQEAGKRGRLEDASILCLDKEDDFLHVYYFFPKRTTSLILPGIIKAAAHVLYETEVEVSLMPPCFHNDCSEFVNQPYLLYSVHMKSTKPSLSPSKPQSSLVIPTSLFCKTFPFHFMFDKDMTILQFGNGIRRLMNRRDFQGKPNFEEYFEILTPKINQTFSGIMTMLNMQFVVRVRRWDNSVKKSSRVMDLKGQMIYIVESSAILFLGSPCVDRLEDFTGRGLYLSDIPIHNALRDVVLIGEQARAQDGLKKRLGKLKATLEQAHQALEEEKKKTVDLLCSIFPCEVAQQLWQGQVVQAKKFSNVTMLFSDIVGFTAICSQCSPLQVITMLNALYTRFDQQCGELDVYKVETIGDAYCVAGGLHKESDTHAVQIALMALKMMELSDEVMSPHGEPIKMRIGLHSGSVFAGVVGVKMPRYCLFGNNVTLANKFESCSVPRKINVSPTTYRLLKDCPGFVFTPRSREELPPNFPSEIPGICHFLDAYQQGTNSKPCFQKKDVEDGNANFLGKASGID
Outline: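 HEK293 cells with endogenous sGC were pre-treated 15 min at 37 °C with 0.5 mM IBMX, then exposed to test compound plus sodium nitroprusside for 10 min at 37 °C. Cells were lysed in 0.1 M HCl (4 °C, 30 min), and cGMP was quantified by LC/MS against a standard curve. EC50 values came from concentration-response curves.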

[2] = molecular target: T2, Human soluble guanylate cyclase enzyme (hsGC) (Homo sapiens, UniProt Q02108+Q02153); test: Purified human sGC enzyme activity assay (without SNP); format: biochemical; conditions: compound at 30 μM, absence of SNP, fold over DMSO control
T2 construct: purchased Enzo Inc. ALX-201-177
T2 sequence (Q02153 1-619): T1 sequence (Q02153 1-619)
T2 sequence (Q02108 1-690): T1 sequence (Q02108 1-690)
Experimental: Biological Activity Measurements by the Purified Human sGC Enzyme Activity Assay
(§1) Human soluble guanylate cyclase enzyme (hsGC) obtained from Enzo Inc. (P/N: ALX-201-177) was used to evaluate the activity of test compounds. The assay reactions contained 0.1 M Tris (pH 8.0), 0.5 mg/mL BSA (pH 8.0), 2 mM DTT, 2 mM MgCl2, 300 μM GTP, 1 mM 3-isobutyl-1-methylxanthine (IBMX) and 5 ng human soluble guanylate cyclase enzyme. Test compounds in DMSO were then added (2 μL, 10 or 30 μM final concentration) and incubated (200 μL, 96-well plate format) at 37° C. for 30 minutes. The controls were carried out using 2 μL DMSO. After the 30 minute incubation, the reaction was stopped with the addition of 200 μl of cold methanol. The plate was then centrifuged at 3,200 rpm for 10 minutes at room temperature. Supernatants (200 μL) were collected and transferred to a new 96 well plate for analysis.
(§2) An 8 point cGMP (Sigma-Aldrich P/N: G6129) standard curve was prepared in assay buffer ranging from 0.156-20 μM. Samples for the cGMP standard curve were then diluted with an equal volume of methanol resulting in final cGMP concentrations of 0.078-10 μM.
(§3) The cGMP standard curve was generated using GraphPad Prism Software.
(§4) Calculations: Specific Activity was determined by the amount of cGMP formed (nmoles) per mg of sGC per min. Enzyme “fold-change” was calculated by dividing Specific Activity for test compounds by Specific Activity of DMSO controls.

[3] = molecular target: T2, Human soluble guanylate cyclase enzyme (hsGC); test: Purified human sGC enzyme synergy assay in the presence of 1 μM sodium nitroprusside (SNP); format: biochemical; conditions: compound at 30 μM, presence of 1 μM SNP
Experimental: as §1, §2, §3, §4
Biological Measurement by the Purified Human sGC Enzyme Synergy Performed in the Presence of Sodium Nitroprusside (SNP), a Nitric Oxide Donor
Enzyme assays were performed as described above, but was done in the absence or presence of 1 μM sodium nitroprusside (SNP).

[4] = Table 3A, top of concentration-response curve not fitted to 100%
[5] = Table 3D, read-out: HEK assay EC50
[6] = top of concentration-response curve not fitted to 100%, Table 3D, read-out: HEK assay EC50-unconstrained
[7] = Table 3B, top of concentration-response curve not fitted to 100%
[8] = Table 3E, read-out: HEK assay EC50
[9] = top of concentration-response curve not fitted to 100%, Table 3E, read-out: HEK assay EC50-unconstrained

| Compound | Emax [1, 4] [%] | HEK MEC-10 ([1]; Table 3D) | EC50 [1, 5] [µM] | EC50 [1, 6] [µM] | Enzyme Activity (increase at 30 μM without SNP) ([2]; Table 5A) | Enzyme Activity (increase at 30 μM with SNP) ([3]; Table 5A) | Emax [1, 7] [%] | HEK MEC-10 ([1]; Table 3E) | EC50 [1, 8] [µM] | EC50 [1, 9] [µM] | Enzyme Activity (increase at 30 μM without SNP) ([2]; Table 5B) | Enzyme Activity (increase at 30 μM with SNP) ([3]; Table 5B) |
| --- | --- | --- | --- | --- | --- | --- | --- | --- | --- | --- | --- | --- |
| NNc1nc(-c2cc(-c3ccon3)n(Cc3ccccc3F)n2)ncc1F [Compound 56] | 60 to 80 | B (0.01 to <0.1 μM) | < 20 | 0.5 to 1 | C (5 to <10 fold increase) | D (10 or <20 fold increase) |  |  |  |  |  |  |
| CCCCCCCCCCC(=O)Nc1cnc(-c2cc(-c3ccon3)n(Cc3ccccc3F)n2)nc1N [Compound 58] |  | E (10 to 50 μM) | 600 to 900 |  | A (no increase to <2 fold increase) | B (2 to <5 fold increase) |  |  |  |  |  |  |
| O=c1[nH]c(-c2cc(-c3ccon3)n(Cc3ccccc3F)n2)ncc1S(=O)(=O)N1CCOCC1 [Compound 60] | 80 to 100 | C (0.1 to <1 μM) | < 20 | 0.5 to 1 | B (2 to <5 fold increase) | D (10 or <20 fold increase) |  |  |  |  |  |  |
| O=c1[nH]c(-c2cc(-c3ccon3)n(Cc3cccnc3F)n2)ncc1F [Compound 67] | 20 to 40 | B (0.01 to <0.1 μM) | 40 to 60 | 0.01 to 0.5 | A (no increase to <2 fold increase) | B (2 to <5 fold increase) |  |  |  |  |  |  |
| O=c1[nH]c(-c2cc(-c3ccccn3)n(Cc3ccccc3F)n2)ncc1F [Compound 68] |  |  |  |  |  |  | 40 to 60 | D (1 to <10 μM) | 40 to 60 | 5 to 10 | A (no increase to <2 fold increase) | C (5 to <10 fold increase) |
| Nc1nc(-c2cc(-c3ccon3)n(Cc3ccccc3F)n2)ncc1NC(=O)C1(N)CC1 [Compound 69] |  |  |  |  |  |  | 80 to 100 | A (0.001 to <0.01 μM) | 60 to 100 | 0.5 to 1 | B (2 to <5 fold increase) | D (10 or <20 fold increase) |
| O=c1[nH]c(-c2cc(-c3ccon3)n(Cc3ccc(F)cc3F)n2)ncc1F [Compound 70] |  |  |  |  |  |  | 40 to 60 | C (0.1 to <1 μM) | 40 to 60 | 0.01 to 0.5 | C (5 to <10 fold increase) | D (10 or <20 fold increase) |
| Nc1ccnc(-c2cc(-c3ccon3)n(Cc3ccc(F)cc3F)n2)n1 [Compound 71] |  |  |  |  |  |  | 60 to 80 | C (0.1 to <1 μM) | 60 to 100 | 1 to 5 | A (no increase to <2 fold increase) | D (10 or <20 fold increase) |
| O=c1[nH]c(-c2cc(-c3ccon3)n(Cc3cc(F)ccc3F)n2)ncc1F [Compound 72] |  |  |  |  |  |  | 40 to 60 | B (0.01 to <0.1 μM) | 40 to 60 | 0.01 to 0.5 | D (10 or <20 fold increase) | D (10 or <20 fold increase) |

Further lines, results first:

| Emax [1, 4] [%] | HEK MEC-10 ([1]; Table 3D) | EC50 [1, 5] [µM] | EC50 [1, 6] [µM] | Enzyme Activity (increase at 30 μM without SNP) ([2]; Table 5A) | Enzyme Activity (increase at 30 μM with SNP) ([3]; Table 5A) | Emax [1, 7] [%] | HEK MEC-10 ([1]; Table 3E) | EC50 [1, 8] [µM] | EC50 [1, 9] [µM] | Enzyme Activity (increase at 30 μM without SNP) ([2]; Table 5B) | Enzyme Activity (increase at 30 μM with SNP) ([3]; Table 5B) | Compound |
| --- | --- | --- | --- | --- | --- | --- | --- | --- | --- | --- | --- | --- |
|  |  |  |  |  |  | 60 to 80 | C (0.1 to <1 μM) | 60 to 100 | 0.5 to 1 | D (10 or <20 fold increase) | D (10 or <20 fold increase) | Nc1ccnc(-c2cc(-c3ccon3)n(Cc3cc(F)ccc3F)n2)n1 [Compound 73] |
|  |  |  |  |  |  | 40 to 60 | C (0.1 to <1 μM) | 40 to 60 | 1 to 5 | B (2 to <5 fold increase) | C (5 to <10 fold increase) | N#Cc1cc(-c2ncc(F)c(=O)[nH]2)nn1Cc1ccccc1F [Compound 74] |
|  |  |  |  |  |  | 40 to 60 | C (0.1 to <1 μM) | 40 to 60 | 1 to 5 | B (2 to <5 fold increase) | C (5 to <10 fold increase) | O=c1[nH]c(-c2cc(-c3ncon3)n(Cc3cc(F)ccc3F)n2)ncc1F [Compound 75] |
|  |  |  |  |  |  | 80 to 100 | B (0.01 to <0.1 μM) | 60 to 100 | 0.01 to 0.5 | D (10 or <20 fold increase) | E (20 to 30 fold increase) | Oc1nc(-c2cc(-c3ccon3)n(Cc3cccc(F)c3F)n2)ncc1Cl [Compound 76] |
|  |  |  |  |  |  | 60 to 80 | C (0.1 to <1 μM) | 60 to 100 | 0.01 to 0.5 | C (5 to <10 fold increase) | E (20 to 30 fold increase) | O=c1[nH]c(-c2cc(-c3ccon3)n(Cc3cccc(Cl)c3F)n2)ncc1F [Compound 77] |
|  |  |  |  |  |  | 80 to 100 | B (0.01 to <0.1 μM) | 60 to 100 | 0.5 to 1 | C (5 to <10 fold increase) | E (20 to 30 fold increase) | Nc1ccnc(-c2cc(-c3ccon3)n(Cc3cccc(Cl)c3F)n2)n1 [Compound 78] |
|  |  |  |  |  |  | 40 to 60 | D (1 to <10 μM) | 40 to 60 | 5 to 10 | B (2 to <5 fold increase) | D (10 or <20 fold increase) | O=c1[nH]c(-c2cc(-c3ccon3)n(Cc3ccccc3F)n2)nc(CF)c1F [Compound 79] |
